Test results published in patent US20240207288A1, “METHODS OF TREATING ESOPHAGEAL STRICTURES” (Ellodi Pharmaceuticals, L.P., priority 2021, published 2024).

System: subjects with strictures and/or rings and EoE
Experiment: Clinical trial of FP ODT: endoscopy (EREFS, strictures, rings)
Type: in vivo, human
Details: for Stricture and Grade 2 Rings at Week 12, % / Stricture at Week 12, % / Stricture or Grade 2 Rings at Week 12, % / Subjects with new strictures and/or rings at Week 12, % / Endoscopy Responder Rate (overall EFEFS score ≤4), %: subgroup with strictures and/or Grade 2 rings at baseline; for Endoscopy Responder Rate (overall EFEFS score ≤4), %: Week 12
From the text: In some embodiments, the strictures and/or rings are diagnosed using EoE Endoscopic Reference Score (EREFS), which measures edema (e.g., decreased vascularity or pallot), rings present, exudates (e.g., white plaques), furrows, and/or stricture in the esophagus according to Table 1. In embodiments, the patient also has a grade 2 or grade 3 ring.
In some embodiments, the methods of the present disclosure cause an improvement in a patient's EoE Endoscopic Reference score (EREFS). The EREFS identifies the severity of five endoscopic findings: edema, rings, exudates, furrows, and strictures. The EREFS classification system rates the severity of each of the endoscopic findings. The severity of edema is rated on a scale from 0 to 2. The severity of rings is rated from 0 to 3. The severity of exudates is rated from 0 to 2. The severity of furrows is rated from 0 to 2. The severity of strictures is rated from 0 to 1. The absence of a finding corresponds to a score of 0. The presence of a finding corresponds to a score of 1, 2, or 3. A higher score is correlated with higher severity. In some embodiments, the composite EREFS score, or the sum of the individual scores, is utilized to indicate the severity of EoE. In some embodiments, the inflammatory EREFS score, or the sum of the individual edeme, exudate, and furrows score, is utilized to indicate the severity of EoE. In some embodiments, a higher inflammatory or composite EREFS score corresponds to the severity of EoE. In some embodiments, the inflammatory or composite EREFS score decreases after treatment with a corticosteroid according to the methods of the disclosure. In some embodiments the inflammatory or composite EREFS score decreases by 0.1, or about 0.2, or about 0.3, or about 0.4, or about 0.5, or about 0.6, or about 0.7, or about 0.8, or about 0.9, or about 1.0, or about 1.1, or about 1.2, or about 1.3, or about 1.4, or about 1.5, or about 1.6, or about 1.7, or about 1.8, or about 1.9, or about 2.0, or about 2.1, or about 2.2, or about 2.3, or about 2.4, or about 2.5, or about 2.6, or about 2.7, or about 2.8, or about 2.9, or about 3.0, or about 3.1, or about 3.2, or about 3.3, or about 3.4, or about 3.5, or about 3.6, or about 3.7, or about 3.8, or about 3.9, or about 4.0, or about 4.1, or about 4.2, or about 4.3, or about 4.4, or about 4.5, or about 4.6, or about 4.7, or about 4.8, or about 4.9, or about 5.0, or about 5.1, or about 5.2, or about 5.3, or about 5.4, or about 5.5, or about 5.6, or about 5.7, or about 5.8, or about 5.9, or about 6.0, or about 6.1, or about 6.2, or about 6.3, or about 6.4, or about 6.5, or about 6.6, or about 6.7, or about 6.8, or about 6.9, or about 7.0, or about 7.1, or about 7.2, or about 7.3, or about 7.4, or about 7.5, or about 7.6, or about 7.7, or about 7.8, or about 7.9, or about 8.0, or about 8.1, or about 8.2, or about 8.3, or about 8.4, or about 8.5, or about 8.6, or about 8.7, or about 8.8, or about 8.9, or about 9.0, or about 9.1, or about 9.2, or about 9.3, or about 9.4, or about 9.5, or about 9.6, or about 9.7, or about 9.8, or about 9.9, or about 10.0 points, or more, inclusive of all ranges between these values. In some embodiments, the EREFS score decreases by 1%, or 5%, or 10%, or 15%, or 20%, or 25%, or 30%, or 35%, or 40%, or 45%, or 50%, or 55%, or 60%, or 65%, or 70%, or 75%, or 80%, or 85%, or 90%, or 95% or more, inclusive of all ranges between these values. The following article, incorporated by reference in its entirety herein, describes the EREFS score: Wechsler, Clin Hepatol. 2018 July; 16(7): 1056-1063.
A clinical trial was performed to evaluate the effect of an orally disintegrating tablet (“ODT”) comprising fluticasone propionate (FP). A randomised, double-blind, placebo-controlled, multicentre, dose-ranging, and maintenance study of FP in subjects (>18 and <75 years of age) with strictures and/or rings and EoE. […]

[1] = all FP dosing groups, TOTAL (n = 43)

S-(fluoromethyl)-6α,9-difluoro-11β, 17-dihydroxy-16α-methyl-3-oxoandrosta-1, 4-diene-17β-carbothioate, 17-propanoate [FP]
Stricture and Grade 2 Rings at Week 12, % (FP 1.5 mg BID (n = 12)): 0%
Stricture at Week 12, % (FP 1.5 mg BID (n = 12)): 42%
Stricture or Grade 2 Rings at Week 12, % (FP 1.5 mg BID (n = 12)): 50%
Subjects with new strictures and/or rings at Week 12, % (FP 1.5 mg BID (n = 12)): 0%
Endoscopy Responder Rate (overall EFEFS score ≤4), % (FP 1.5 mg BID (n = 12)): 92%
Stricture and Grade 2 Rings at Week 12, % (FP 1.5 mg HS (n = 13)): 0%
Stricture at Week 12, % (FP 1.5 mg HS (n = 13)): 8%
Stricture or Grade 2 Rings at Week 12, % (FP 1.5 mg HS (n = 13)): 15%
Subjects with new strictures and/or rings at Week 12, % (FP 1.5 mg HS (n = 13)): 0%
Endoscopy Responder Rate (overall EFEFS score ≤4), % (FP 1.5 mg HS (n = 13)): 77%
Stricture and Grade 2 Rings at Week 12, % (FP 3 mg BID (n = 7)): 0%
Stricture at Week 12, % (FP 3 mg BID (n = 7)): 29%
Stricture or Grade 2 Rings at Week 12, % (FP 3 mg BID (n = 7)): 29%
Subjects with new strictures and/or rings at Week 12, % (FP 3 mg BID (n = 7)): 0%
Endoscopy Responder Rate (overall EFEFS score ≤4), % (FP 3 mg BID (n = 7)): 86%
Stricture and Grade 2 Rings at Week 12, % (FP 3 mg HS (n = 11)): 0%
Stricture at Week 12, % (FP 3 mg HS (n = 11)): 9%
Stricture or Grade 2 Rings at Week 12, % (FP 3 mg HS (n = 11)): 18%
Subjects with new strictures and/or rings at Week 12, % (FP 3 mg HS (n = 11)): 0%
Endoscopy Responder Rate (overall EFEFS score ≤4), % (FP 3 mg HS (n = 11)): 100%
Stricture and Grade 2 Rings at Week 12, % [1]: 0%
Stricture at Week 12, % [1]: 21%
Stricture or Grade 2 Rings at Week 12, % [1]: 28%
Subjects with new strictures and/or rings at Week 12, % [1]: 0%
Endoscopy Responder Rate (overall EFEFS score ≤4), % [1]: 88%
Grade 2 Rings at Week 12, % (all FP dosing groups, subjects with stricture/rings at baseline): 7%
Effect on strictures and/or grade 2 esophageal rings (post-hoc analysis) (patients with strictures and/or grade 2 esophageal rings at baseline, particularly the 3-mg HS dosing group): improvement or resolution of these features in most patients
